In ChEMBL document CHEMBL1201862, “PubChem BioAssay data set” (2004):
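Cells were grown in 96-well plates and exposed to each compound for 48 hours at five concentrations; endpoints were interpolated linearly between bracketing concentrations, or set to the highest concentration if not reached. GI50 = concentration required for 50% inhibition of growth.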 Calls of active or inactive are those of the source. Cut-off read from the data, not from the text of the source: active = GI50 up to about 1.1 µM and inactive = higher.

Tests used:
Assay in all cases: NCI tumour cell line growth inhibition, 48 h
KM-20L2 = system: KM-20L2
IGROV-1 = system: IGROV-1
RXF 393 = system: RXF 393
A549 = system: A549
ACHN = system: ACHN
SW-620 = system: SW-620
786-0 = system: 786-0
TK-10 = system: TK-10
SNB-19 = system: SNB-19
SR = system: SR
EKVX = system: EKVX
OVCAR-8 = system: OVCAR-8
NCI-H226 = system: NCI-H226
HCT-116 = system: HCT-116
HT-29 = system: HT-29
CAKI-1 = system: CAKI-1
SNB-75 = system: SNB-75
OVCAR-5 = system: OVCAR-5
MDA-MB-231 = system: MDA-MB-231
T47D = system: T47D

Compound | GI50 (KM-20L2) | GI50 (IGROV-1) | GI50 (RXF 393) | GI50 (A549) | GI50 (ACHN) | GI50 (SW-620) | GI50 (786-0) | GI50 (TK-10) | GI50 (SNB-19) | GI50 (SR) | GI50 (EKVX) | GI50 (OVCAR-8) | GI50 (NCI-H226) | GI50 (HCT-116) | GI50 (HT-29) | GI50 (CAKI-1) | GI50 (SNB-75) | GI50 (OVCAR-5) | GI50 (MDA-MB-231) | GI50 (T47D)
O=C(/C=C/c1ccc(O)cc1)c1cc(Cl)ccc1O | > 100 µM (inactive) | 57.4 µM (inactive) | 28.9 µM (inactive) | 39.9 µM (inactive) | 70.8 µM (inactive) | 35.4 µM (inactive) | 77.6 µM (inactive) | > 100 µM (inactive) | 44.9 µM (inactive) | 16.9 µM (inactive) | 86.3 µM (inactive) | 39.4 µM (inactive) | 95.9 µM (inactive) | 22.6 µM (inactive) | 34.5 µM (inactive) | > 100 µM (inactive) | 46.5 µM (inactive) |  |  | 
CCOc1ccc(NC(=O)C(=O)CC(=O)c2sc(NNC(C)=O)nc2C)cc1 | > 100 µM (inactive) | > 100 µM (inactive) | > 100 µM (inactive) | > 100 µM (inactive) | > 100 µM (inactive) | > 100 µM (inactive) |  | > 100 µM (inactive) | > 100 µM (inactive) | > 100 µM (inactive) | 40.9 µM (inactive) | > 100 µM (inactive) | > 100 µM (inactive) | > 100 µM (inactive) | > 100 µM (inactive) | > 100 µM (inactive) | > 100 µM (inactive) | > 100 µM (inactive) |  | 
O=C1CSC(/C(=C\c2ccc(Cl)cc2)c2nc3ccccc3[nH]2)=N1 | 31 µM (inactive) | 10.1 µM (inactive) | 0.738 µM (active) | 4.05 µM (inactive) | 6.68 µM (inactive) | 18.5 µM (inactive) | 13.6 µM (inactive) | 11.8 µM (inactive) | 19.2 µM (inactive) | 36.3 µM (inactive) | 17 µM (inactive) | 7.91 µM (inactive) | 6.93 µM (inactive) | 16 µM (inactive) | 21.7 µM (inactive) | 8.79 µM (inactive) | 12.3 µM (inactive) | 17 µM (inactive) | 12.7 µM (inactive) | 13.9 µM (inactive)
Cc1c(C(=O)/C=C/c2ccccc2[N+](=O)[O-])[n+]([O-])c2ccccc2[n+]1[O-] | 5.61 µM (inactive) | 10.6 µM (inactive) |  | 12.5 µM (inactive) | 10.6 µM (inactive) | 5.13 µM (inactive) | 5.53 µM (inactive) |  | 19.1 µM (inactive) | 4.34 µM (inactive) | 14.4 µM (inactive) | 3.9 µM (inactive) | 11.4 µM (inactive) | 3.96 µM (inactive) | 8.57 µM (inactive) | 3.61 µM (inactive) | 13.2 µM (inactive) | 13.7 µM (inactive) |  | 
CC1c2ccccc2Cn2cc3c(c21)C(=O)c1cccc(OP(=O)(O)OCc2ccccc2)c1C3=O (configuration not stated) | > 100 µM (inactive) | > 100 µM (inactive) | > 100 µM (inactive) | > 100 µM (inactive) | > 100 µM (inactive) | > 100 µM (inactive) | > 100 µM (inactive) | > 100 µM (inactive) | > 100 µM (inactive) | > 66.5 µM (inactive) | > 66.1 µM (inactive) | > 100 µM (inactive) | > 100 µM (inactive) | > 100 µM (inactive) | > 100 µM (inactive) | > 82.8 µM (inactive) | > 100 µM (inactive) | > 100 µM (inactive) | > 100 µM (inactive) | 51.6 µM (inactive)
COc1ccc2nc3cc(Cl)ccc3c(Nc3ccccc3-c3ccccc3Nc3c4ccc(Cl)cc4nc4ccc(OC)cc34)c2c1 | 19.9 µM (inactive) | 45.7 µM (inactive) | 14.9 µM (inactive) | 45.2 µM (inactive) | > 29.4 µM (inactive) | 15.4 µM (inactive) | 26.7 µM (inactive) | 64.1 µM (inactive) | 40.4 µM (inactive) | 3.5 µM (inactive) | 52 µM (inactive) | 28.5 µM (inactive) | > 41.1 µM (inactive) | 11.7 µM (inactive) | 10.5 µM (inactive) | 21.3 µM (inactive) | 14.7 µM (inactive) | 37.8 µM (inactive) | 26.9 µM (inactive) | 13.1 µM (inactive)
Cc1cc(Cl)ccc1NC(=O)CC1SC(NC(=O)c2ccccc2Cl)=NC1=O (configuration not stated) | 28.6 µM (inactive) | 38.2 µM (inactive) | 17.7 µM (inactive) | 81.7 µM (inactive) | 16.9 µM (inactive) | 18 µM (inactive) | 19 µM (inactive) | > 10 µM (inactive) | > 100 µM (inactive) | 15.3 µM (inactive) | > 100 µM (inactive) | > 100 µM (inactive) | 25.2 µM (inactive) | 17.9 µM (inactive) | 21.5 µM (inactive) | 19.2 µM (inactive) | 19.2 µM (inactive) | 27.9 µM (inactive) |  | 
O=C(N/C(=C\c1cc(Cl)ccc1Cl)c1nc2c(O)nc(S)nc2[nH]1)c1ccccc1 | 41.4 µM (inactive) | > 42.4 µM (inactive) | 21.6 µM (inactive) | 98.6 µM (inactive) | 37.1 µM (inactive) | 13.7 µM (inactive) | 17.5 µM (inactive) | > 75.3 µM (inactive) | > 55.2 µM (inactive) | 25.5 µM (inactive) | 37.8 µM (inactive) | 25.7 µM (inactive) | > 100 µM (inactive) | 7.91 µM (inactive) | 20.8 µM (inactive) | 38.5 µM (inactive) | 34.2 µM (inactive) | > 100 µM (inactive) |  | 
O=C(Nc1ccc(Sc2ccc(/N=N/c3c(O)c(S(=O)(=O)O)cc4cc(S(=O)(=O)O)ccc34)cc2)cc1)c1ccc(/N=N/c2c(O)c(S(=O)(=O)O)cc3cc(S(=O)(=O)O)ccc23)cc1 | 63.5 µM (inactive) | 35.6 µM (inactive) | 33.1 µM (inactive) | 26.7 µM (inactive) | 29.9 µM (inactive) | 28.3 µM (inactive) | 43.6 µM (inactive) | 27.5 µM (inactive) | 48.3 µM (inactive) | 10.9 µM (inactive) | 17.7 µM (inactive) | 21 µM (inactive) | 39.3 µM (inactive) | 29.8 µM (inactive) | 32.1 µM (inactive) | 37.4 µM (inactive) | > 100 µM (inactive) | 47.2 µM (inactive) |  | 
Cc1cc(N(CCC#N)CCC#N)ccc1/C=C1N=C(/C=C\c2ccccc2)OC\1=O | > 100 µM (inactive) | > 100 µM (inactive) | > 100 µM (inactive) | > 100 µM (inactive) | > 100 µM (inactive) | > 100 µM (inactive) | > 100 µM (inactive) | > 100 µM (inactive) | > 100 µM (inactive) | 30.3 µM (inactive) | > 100 µM (inactive) | > 100 µM (inactive) | > 100 µM (inactive) | > 100 µM (inactive) | > 100 µM (inactive) | > 100 µM (inactive) | > 100 µM (inactive) | > 100 µM (inactive) |  | 
